In publication PMC5428509, “Irreversible inhibition of BTK kinase by a novel highly selective inhibitor CHMFL-BTK-11 suppresses inflammatory response in rheumatoid arthritis model” (Scientific Reports, 2017) one finds remaining binding data, which are given here for one compound.

Assay in all cases: biochemical
Common to all, as to design: KinomeScan competition binding panel (DiscoveRx), percent of control at 1 uM
Common to all, as to conditions: read-out: Percent Control

The target of one test is ALK(C1156Y) (Homo sapiens, UniProt Q9UM73, C1156Y). The method, boiled down:
(§1)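 KinomeScan technology used to profile binding across a panel of 456 kinases and mutants.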

Test [1] has as its target EGFR(L747-E749del, A750P) (Homo sapiens, UniProt P00533, A750P/DEL747-749). The method, boiled down:
as §1

The target in the next test is PRKCI (Homo sapiens, UniProt P41743). An outline of the steps: as §1
The target in the next test is ROS1 (Homo sapiens, UniProt P08922). The method, boiled down: as §1
The target in a further test is PIK3CA(C420R) (Homo sapiens, UniProt P42336, C420R). The method, boiled down: as §1
Sequence of PIK3CA(C420R) (P42336 whole entry C420R): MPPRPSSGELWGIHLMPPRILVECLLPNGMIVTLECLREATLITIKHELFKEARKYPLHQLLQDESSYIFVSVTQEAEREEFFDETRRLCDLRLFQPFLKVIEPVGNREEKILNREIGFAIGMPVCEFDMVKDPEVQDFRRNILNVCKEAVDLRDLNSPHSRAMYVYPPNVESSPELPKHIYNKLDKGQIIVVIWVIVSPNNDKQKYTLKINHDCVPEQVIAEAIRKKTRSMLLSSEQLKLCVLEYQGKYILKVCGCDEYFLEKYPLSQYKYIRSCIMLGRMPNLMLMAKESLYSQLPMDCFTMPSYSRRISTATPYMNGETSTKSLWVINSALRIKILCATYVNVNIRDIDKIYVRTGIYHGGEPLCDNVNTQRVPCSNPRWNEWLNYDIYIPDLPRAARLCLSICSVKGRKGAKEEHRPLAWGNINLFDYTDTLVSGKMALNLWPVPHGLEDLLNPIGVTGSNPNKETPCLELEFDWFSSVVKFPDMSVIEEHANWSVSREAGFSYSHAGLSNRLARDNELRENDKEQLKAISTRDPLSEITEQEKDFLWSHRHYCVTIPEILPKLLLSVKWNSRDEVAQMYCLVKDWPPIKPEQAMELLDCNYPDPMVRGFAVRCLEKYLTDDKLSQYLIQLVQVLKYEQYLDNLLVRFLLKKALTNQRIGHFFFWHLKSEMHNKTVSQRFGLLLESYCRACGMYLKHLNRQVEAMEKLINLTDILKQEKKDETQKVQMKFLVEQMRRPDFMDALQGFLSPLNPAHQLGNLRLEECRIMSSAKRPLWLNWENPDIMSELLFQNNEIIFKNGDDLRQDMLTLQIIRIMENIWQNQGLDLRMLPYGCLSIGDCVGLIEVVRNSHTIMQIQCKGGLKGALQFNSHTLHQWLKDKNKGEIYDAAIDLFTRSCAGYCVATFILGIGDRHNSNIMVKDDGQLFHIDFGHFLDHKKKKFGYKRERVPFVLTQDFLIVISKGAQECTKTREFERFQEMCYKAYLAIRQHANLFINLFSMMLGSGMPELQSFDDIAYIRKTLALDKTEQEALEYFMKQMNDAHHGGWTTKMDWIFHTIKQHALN
The target in the next test is HIPK3 (Homo sapiens, UniProt Q9H422). An outline of the steps:
as §1

The next test addresses PKN1 (Homo sapiens, UniProt Q16512). The method, boiled down: as §1
The target in another test is ERBB2 (Homo sapiens, UniProt P04626). An outline of the steps: as §1
Another test deals with PLK4 (Homo sapiens, UniProt O00444). The method, boiled down:
as §1

A further test addresses T1, MEK5 (Homo sapiens, UniProt Q13163).
T1 construct: gene MAP2K5
The method, boiled down: as §1

Test [2] concerns the target T2, RPS6KA4(Kin.Dom.1-N-terminal) (Homo sapiens, UniProt O75676).
T2 construct: Kin.Dom.1-N-terminal
An outline of the steps:
as §1

The next test has as its target EPHA1 (Homo sapiens, UniProt P21709). An outline of the steps: as §1
The next test has as its target EPHB6 (Homo sapiens, UniProt O15197). The method, boiled down: as §1
The target of another test is PIK3CA(H1047Y) (Homo sapiens, UniProt P42336, H1047Y). The method, boiled down:
as §1

A further test addresses T3, MLK3 (Homo sapiens, UniProt Q16584).
T3 construct: gene MAP3K11
The method, boiled down:
as §1

Another test concerns the target EPHA6 (Homo sapiens, UniProt Q9UF33). The method, boiled down: as §1
Another test concerns the target CSNK1A1 (Homo sapiens, UniProt P48729). The method, boiled down:
as §1

For test [3], the target named is T4, ABL1(F317I)-phosphorylated (Homo sapiens, UniProt P00519, F317I).
T4 construct: phosphorylated
An outline of the steps: as §1

The target of the next test is BMPR1B (Homo sapiens, UniProt O00238). The method, boiled down:
as §1

For test [4], the target named is T5, RSK3(Kin.Dom.1-N-terminal) (Homo sapiens, UniProt Q15349).
T5 construct: gene RPS6KA2; Kin.Dom.1-N-terminal
An outline of the steps: as §1

For another test, the target named is EGFR(S752-I759del) (Homo sapiens, UniProt P00533, DEL752-759). The method, boiled down:
as §1

A further test has as its target T6, CDK4-cyclinD3 (Homo sapiens, UniProt P11802).
T6 construct: cyclinD3
The method, boiled down:
as §1

A further test concerns the target HIPK2 (Homo sapiens, UniProt Q9H2X6). The method, boiled down: as §1
A further test deals with MTOR (Homo sapiens, UniProt P42345). An outline of the steps:
as §1

Sequence of PIK3CA(H1047Y) (P42336 whole entry H1047Y): as the sequence (P42336 whole entry C420R) above, with R420C, H1047Y counted along it
Sequence of EPHA6 (Q9UF33 whole entry): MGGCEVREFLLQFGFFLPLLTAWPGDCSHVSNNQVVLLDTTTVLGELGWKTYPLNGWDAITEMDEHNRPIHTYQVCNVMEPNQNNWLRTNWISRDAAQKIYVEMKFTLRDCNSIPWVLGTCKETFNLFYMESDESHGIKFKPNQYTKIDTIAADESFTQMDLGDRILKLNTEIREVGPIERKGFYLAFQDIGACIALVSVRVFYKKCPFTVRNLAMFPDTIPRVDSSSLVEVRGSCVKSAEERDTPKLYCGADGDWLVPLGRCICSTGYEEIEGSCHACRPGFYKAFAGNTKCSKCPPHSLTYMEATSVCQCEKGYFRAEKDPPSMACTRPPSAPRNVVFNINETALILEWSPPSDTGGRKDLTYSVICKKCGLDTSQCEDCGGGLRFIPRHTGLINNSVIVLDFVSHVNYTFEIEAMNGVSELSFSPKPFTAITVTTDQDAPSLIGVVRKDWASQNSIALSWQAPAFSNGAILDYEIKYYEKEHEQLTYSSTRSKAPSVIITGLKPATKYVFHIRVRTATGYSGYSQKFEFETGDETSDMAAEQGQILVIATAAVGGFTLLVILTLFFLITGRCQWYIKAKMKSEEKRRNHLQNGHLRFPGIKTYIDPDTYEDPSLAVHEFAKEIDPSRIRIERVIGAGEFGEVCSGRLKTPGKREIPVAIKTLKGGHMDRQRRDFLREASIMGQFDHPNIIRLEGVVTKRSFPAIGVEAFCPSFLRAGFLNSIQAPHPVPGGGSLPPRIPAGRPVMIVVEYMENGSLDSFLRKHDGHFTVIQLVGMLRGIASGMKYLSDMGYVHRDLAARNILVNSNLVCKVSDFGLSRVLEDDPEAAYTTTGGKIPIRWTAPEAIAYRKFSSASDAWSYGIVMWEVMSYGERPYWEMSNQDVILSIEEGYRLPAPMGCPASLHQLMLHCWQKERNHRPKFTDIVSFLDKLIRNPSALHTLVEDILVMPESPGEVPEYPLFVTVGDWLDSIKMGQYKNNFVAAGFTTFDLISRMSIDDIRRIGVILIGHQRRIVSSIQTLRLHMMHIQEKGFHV
Sequence of HIPK2 (Q9H2X6 whole entry): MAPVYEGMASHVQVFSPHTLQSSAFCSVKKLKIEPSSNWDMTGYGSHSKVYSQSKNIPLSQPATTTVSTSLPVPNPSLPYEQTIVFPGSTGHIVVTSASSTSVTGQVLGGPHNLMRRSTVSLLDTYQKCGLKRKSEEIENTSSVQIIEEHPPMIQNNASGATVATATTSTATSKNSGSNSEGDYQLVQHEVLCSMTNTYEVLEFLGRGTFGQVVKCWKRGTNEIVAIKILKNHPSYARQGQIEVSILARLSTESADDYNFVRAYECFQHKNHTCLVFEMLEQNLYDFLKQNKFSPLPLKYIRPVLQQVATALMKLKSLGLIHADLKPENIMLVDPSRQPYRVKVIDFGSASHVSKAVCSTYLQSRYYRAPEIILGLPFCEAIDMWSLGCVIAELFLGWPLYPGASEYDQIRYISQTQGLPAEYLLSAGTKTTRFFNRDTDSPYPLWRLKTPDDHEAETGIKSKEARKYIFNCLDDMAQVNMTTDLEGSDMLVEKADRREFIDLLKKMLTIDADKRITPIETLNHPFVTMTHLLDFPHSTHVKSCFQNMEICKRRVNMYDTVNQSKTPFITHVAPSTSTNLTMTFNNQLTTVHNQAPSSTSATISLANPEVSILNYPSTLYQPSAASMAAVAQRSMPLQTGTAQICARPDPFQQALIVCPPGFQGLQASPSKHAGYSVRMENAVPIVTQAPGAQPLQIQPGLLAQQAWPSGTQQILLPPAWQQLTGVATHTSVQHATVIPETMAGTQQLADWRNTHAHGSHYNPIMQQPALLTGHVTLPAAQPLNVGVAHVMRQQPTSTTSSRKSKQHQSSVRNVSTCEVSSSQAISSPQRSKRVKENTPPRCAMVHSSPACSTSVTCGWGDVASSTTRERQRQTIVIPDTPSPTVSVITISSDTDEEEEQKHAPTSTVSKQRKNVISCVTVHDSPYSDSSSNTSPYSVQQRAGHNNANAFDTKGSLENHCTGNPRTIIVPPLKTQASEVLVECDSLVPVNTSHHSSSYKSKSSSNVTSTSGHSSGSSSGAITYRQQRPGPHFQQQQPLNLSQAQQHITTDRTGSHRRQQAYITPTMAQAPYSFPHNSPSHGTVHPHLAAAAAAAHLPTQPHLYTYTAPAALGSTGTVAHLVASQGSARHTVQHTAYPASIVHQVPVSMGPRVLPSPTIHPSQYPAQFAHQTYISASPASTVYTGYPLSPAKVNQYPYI
Sequence of PLK4 (O00444 whole entry): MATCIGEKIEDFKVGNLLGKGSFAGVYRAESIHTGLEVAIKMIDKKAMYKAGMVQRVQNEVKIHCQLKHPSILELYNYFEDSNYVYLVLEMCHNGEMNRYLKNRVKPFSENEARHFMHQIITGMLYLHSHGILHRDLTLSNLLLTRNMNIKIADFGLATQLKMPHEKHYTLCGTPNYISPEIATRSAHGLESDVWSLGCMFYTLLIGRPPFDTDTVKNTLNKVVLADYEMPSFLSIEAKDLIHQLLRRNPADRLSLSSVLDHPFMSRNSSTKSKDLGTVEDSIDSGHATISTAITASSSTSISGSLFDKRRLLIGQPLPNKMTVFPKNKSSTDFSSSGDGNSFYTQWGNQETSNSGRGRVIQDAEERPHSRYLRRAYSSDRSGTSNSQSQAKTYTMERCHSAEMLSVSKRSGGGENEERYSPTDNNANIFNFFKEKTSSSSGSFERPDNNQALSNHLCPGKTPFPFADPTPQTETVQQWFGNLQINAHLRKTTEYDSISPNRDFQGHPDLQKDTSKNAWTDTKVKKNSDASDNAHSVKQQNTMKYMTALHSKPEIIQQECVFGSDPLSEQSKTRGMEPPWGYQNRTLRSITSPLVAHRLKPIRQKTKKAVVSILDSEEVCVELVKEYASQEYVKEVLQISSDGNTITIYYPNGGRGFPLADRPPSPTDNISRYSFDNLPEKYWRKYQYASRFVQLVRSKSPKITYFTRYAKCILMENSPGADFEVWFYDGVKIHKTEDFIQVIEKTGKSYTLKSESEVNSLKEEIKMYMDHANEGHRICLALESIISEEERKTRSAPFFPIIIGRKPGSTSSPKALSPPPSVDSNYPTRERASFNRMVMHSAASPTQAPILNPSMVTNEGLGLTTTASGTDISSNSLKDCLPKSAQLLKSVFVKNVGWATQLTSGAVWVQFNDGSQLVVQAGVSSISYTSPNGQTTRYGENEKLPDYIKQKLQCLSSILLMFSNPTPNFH
Sequence of CSNK1A1 (P48729 whole entry): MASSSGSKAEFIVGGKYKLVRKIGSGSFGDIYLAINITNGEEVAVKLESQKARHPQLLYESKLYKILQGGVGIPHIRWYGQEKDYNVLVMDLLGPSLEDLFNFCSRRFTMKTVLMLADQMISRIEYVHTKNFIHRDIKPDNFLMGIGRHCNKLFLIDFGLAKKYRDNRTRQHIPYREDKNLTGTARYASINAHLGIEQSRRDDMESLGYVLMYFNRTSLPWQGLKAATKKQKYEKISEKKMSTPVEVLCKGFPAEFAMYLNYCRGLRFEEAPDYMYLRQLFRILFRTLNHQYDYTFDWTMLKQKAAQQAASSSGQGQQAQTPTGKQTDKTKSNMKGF
T1 sequence (Q13163 whole entry): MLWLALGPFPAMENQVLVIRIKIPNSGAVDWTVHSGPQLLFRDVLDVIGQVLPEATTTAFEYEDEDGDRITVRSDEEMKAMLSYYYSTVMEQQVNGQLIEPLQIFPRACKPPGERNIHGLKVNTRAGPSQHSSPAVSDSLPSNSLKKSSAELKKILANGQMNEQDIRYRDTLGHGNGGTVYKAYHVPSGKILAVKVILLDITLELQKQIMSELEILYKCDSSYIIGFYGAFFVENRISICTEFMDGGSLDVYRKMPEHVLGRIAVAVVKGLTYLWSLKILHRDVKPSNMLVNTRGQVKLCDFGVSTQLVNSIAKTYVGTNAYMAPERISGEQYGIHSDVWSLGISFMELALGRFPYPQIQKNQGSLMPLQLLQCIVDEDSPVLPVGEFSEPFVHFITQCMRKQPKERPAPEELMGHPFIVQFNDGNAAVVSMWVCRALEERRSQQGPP

Regarding `C=CC(=O)Nc1cc(-n2c(=O)ccc3cnc4ccc(-n5cccn5)cc4c32)ccc1C` [CHMFL-BTK-11], the remaining binding at 1 µM at ALK(C1156Y) was determined as 94%; in [1] it was 73%; on PRKCI, 69%; at ROS1, 94%; at PIK3CA(C420R) it was 74%; at HIPK3 it was 100%. Moreover, the remaining binding at 1 µM on PKN1 was 100%; on ERBB2 it was 98%; at PLK4, 56%; at MEK5 it was 80%; in [2], 100%; on EPHA1, 100%. Further, the remaining binding at 1 µM on EPHB6 is 87%; at PIK3CA(H1047Y) it was 82%; on MLK3 it was 100%; at EPHA6, 100%; at CSNK1A1, 100%; in test [3] it was 100%. Also, the remaining binding at 1 µM at BMPR1B worked out at 97%; in test [4], 100%; at EGFR(S752-I759del), 58%; at CDK4-cyclinD3 it was 100%; at HIPK2 it was 96%; at MTOR, 62%.
